In PMC10222582, “Iminosugar-Based Nicotinamide Phosphoribosyltransferase (NAMPT) Inhibitors as Potential Anti-Pancreatic Cancer Agents” (Pharmaceutics, 2023):

Columns and labels:
recombinant human NAMPT = target: T1, recombinant human NAMPT (Homo sapiens, UniProt P43490); experiment: NAMPT inhibition (fluorometric NMN detection); type: biochemical; details: NI = No inhibition at concentration < 1 mM, SD < 20%
T1 construct: purchased Abcam ab198090

MiaPaCa-2 cells [1] = experiment: Measurement of intracellular NAD+ levels (cycling enzymatic assay); type: cell-based, human; details: 24 h, 100 μM of inhibitor, SD < 20%
MiaPaCa-2 cells [2] = experiment: Cell viability assay (SRB); type: cell-based; details: Homo sapiens, MIA PaCa-2, MiaPaCa-2, 72 h
Protocol: Cell viability assay. MiaPaCa-2 cells (2 × 10^3/well) were plated in 96−well plates and left to adhere overnight. After 24 h the cells were treated with the inhibitors. Viability was determined after 72 h. The culture plates were fixed with cold 3% trichloroacetic acid at 4 °C for 30 min, washed with cold water and dried overnight. Finally, the plates were stained with 0.4% sulforodhamine B (SRB) in 1% acetic acid, washed four times with 1% acetic acid to remove unbound dye, dried overnight and then the stain was extracted with 10 mM Tris Base and the absorbance was read at 560 nm.
Then, the new compounds were tested in vitro for their anti-proliferative effect, using the human pancreatic cancer cell line MiaPaca-2 in the cytotoxicity assays (Table 1).

MiaPaCa-2 cells [3] = experiment: Measurement of intracellular NAD+ levels (cycling enzymatic assay); type: cell-based, human; parameters: dose or concentration left out as unconfirmed; details: after 24 h
Protocol: Measurement of intracellular NAD^+ levels. MiaPaCa-2 cells were plated at a density of 6.5 × 10^4 cells/well in 12−well plates. After 24 h, cells were treated (or not) with the different compounds and cultured for a further 24 h. Cells were harvested and lysed in 0.1 mL 0.6 M perchloric acid. Intracellular NAD^+ levels were determined with a cycling enzymatic assay, as previously reported.
In order to confirm that the above-mentioned anti-proliferative effect of the new NAMPT inhibitors were associated with NAD^+ depletion, we evaluated the intracellular NAD^+ concentration (iNAD^+) in MiaPaCa-2 cells for all the compounds (at a fixed […] concentration). After 24 h, only the iminosugar-based inhibitors 22 (77%) and 29 (79%), as well as the non-carbohydrate analogue 42 (61%), led to significant depletion; the other compounds exerted an effect in the 0–10% range.

[4] = NI (footnote 3) = No inhibition at concentration < 400 μM, SD < 20%

T1 sequence (P43490 whole entry): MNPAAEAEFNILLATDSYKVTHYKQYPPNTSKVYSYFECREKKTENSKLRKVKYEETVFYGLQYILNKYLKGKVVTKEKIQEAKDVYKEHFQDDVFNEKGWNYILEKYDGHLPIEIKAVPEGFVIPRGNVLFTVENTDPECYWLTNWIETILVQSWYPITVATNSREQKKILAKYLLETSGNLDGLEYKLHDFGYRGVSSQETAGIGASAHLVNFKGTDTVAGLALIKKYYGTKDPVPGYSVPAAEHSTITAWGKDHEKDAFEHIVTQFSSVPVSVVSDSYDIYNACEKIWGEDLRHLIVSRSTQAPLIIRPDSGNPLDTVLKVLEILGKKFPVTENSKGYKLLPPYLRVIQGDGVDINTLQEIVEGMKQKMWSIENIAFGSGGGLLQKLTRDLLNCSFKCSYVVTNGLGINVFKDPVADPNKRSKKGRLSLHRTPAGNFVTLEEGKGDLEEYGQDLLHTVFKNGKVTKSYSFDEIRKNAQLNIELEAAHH

| SMILES | IC50 (recombinant human NAMPT) | iNAD+ Depletion (%) (MiaPaCa-2 cells [1]) | IC50 (MiaPaCa-2 cells [2]; NI (footnote 2) = No inhibition at concentration < 100 μM) | intracellular NAD+ depletion (MiaPaCa-2 cells [3]) | IC50 (MiaPaCa-2 cells [2]; [4]) |
| --- | --- | --- | --- | --- | --- |
| CC(C)(C)c1ccc(S(=O)(=O)N2CCC(CCCC(=O)Nc3ccc([C@@H]4N[C@H](CO)[C@@H](O)[C@H]4O)cc3)CC2)cc1 [Compound 21] | > 1000 µM | 0% | > 400 µM |  |  |
| O=C(CCCC1CCN(C(=O)c2ccccc2)CC1)Nc1ccc([C@@H]2N[C@H](CO)[C@@H](O)[C@H]2O)cc1 [Compound 22] | 99.5 µM | 77% |  | 77% | 108 µM |
| O=C(CCCCCNC(=O)c1ccccc1)Nc1ccc([C@@H]2N[C@H](CO)[C@@H](O)[C@H]2O)cc1 [Compound 23] | 363 µM | 5% |  |  | > 400 µM |
| CC(C)(C)c1ccc(S(=O)(=O)NCc2ccc(C(=O)Nc3ccc([C@@H]4N[C@H](CO)[C@@H](O)[C@H]4O)cc3)cc2)cc1 [Compound 24] | 549 µM | 9% |  |  | > 400 µM |
| O=C(NCc1ccc(C(=O)Nc2ccc([C@@H]3N[C@H](CO)[C@@H](O)[C@H]3O)cc2)cc1)c1ccccc1 [Compound 25] | > 1000 µM | 0% |  |  | > 400 µM |
| COC[C@H]1N[C@@H](c2ccc(NC(=O)CCCC3CCN(S(=O)(=O)c4ccc(C(C)(C)C)cc4)CC3)cc2)[C@H](OC)[C@@H]1OC [Compound 26] | 139 µM | 10% |  |  | 37 µM |
| COC[C@H]1N[C@@H](c2ccc(NC(=O)CCCC3CCN(C(=O)c4ccccc4)CC3)cc2)[C@H](OC)[C@@H]1OC [Compound 27] | > 1000 µM | 0% |  |  | 539 µM |
| COC[C@H]1N[C@@H](c2ccc(NC(=O)CCCCCNC(=O)c3ccccc3)cc2)[C@H](OC)[C@@H]1OC [Compound 28] | 603 µM | 3% |  |  | > 400 µM |
| COC[C@H]1N[C@@H](c2ccc(NC(=O)c3ccc(CNS(=O)(=O)c4ccc(C(C)(C)C)cc4)cc3)cc2)[C@H](OC)[C@@H]1OC [Compound 29] | 63 µM | 79% |  | 79% | 32 µM |
| COC[C@H]1N[C@@H](c2ccc(NC(=O)c3ccc(CNC(=O)c4ccccc4)cc3)cc2)[C@H](OC)[C@@H]1OC [Compound 30] | > 1000 µM | 0% |  |  | 920 µM |
| CC(C)(C)c1ccc(S(=O)(=O)N2CCC(CCCC(=O)Nc3ccccc3)CC2)cc1 [Compound 34] | 357 µM | 6% |  |  | 46.6 µM |
| O=C(CCCC1CCN(C(=O)c2ccccc2)CC1)Nc1ccccc1 [Compound 35] | > 1000 µM | 4% |  |  | 91.4 µM |
| O=C(CCCCCNC(=O)c1ccccc1)Nc1ccccc1 [Compound 38] | 113 µM | 0% |  |  | 340 µM |
| CC(C)(C)c1ccc(S(=O)(=O)NCc2ccc(C(=O)Nc3ccccc3)cc2)cc1 [Compound 42] | 43 µM | 61% |  | 61% | > 400 µM |
| O=C(NCc1ccc(C(=O)Nc2ccccc2)cc1)c1ccccc1 [Compound 43] | 283 µM | 1% |  |  | 698 µM |
| O=C(/C=C/c1cccnc1)NCCCCC1CCN(C(=O)c2ccccc2)CC1 [FK866, reference compound] |  | 90% |  |  | 0.0024 µM |
